Patent US8962793B2, “ErbB interface peptidomimetics and methods of use thereof” (The Trustees of the University of Pennsylvania, priority 2001, dated 2015)
Read-outs that look alike come from different tables or passages of the source. Each block holds one compound with its values, some of them ahead of it. Bridge positions count the residues as written; N and C are the ends. Peptide text beside a SMILES is read from it.

What was measured:
[1] = target: T1, erbB3-erbB2 heteromerization (Homo sapiens, UniProt P04626); experiment: SPR inhibition of HRGβ1-induced binding of ErbB3 to immobilized ErbB2; conditions: peptide 10 μm, ErbB3 300 nm, HRGβ1 5 μM
T1 construct: the ectodomains of erbB receptors were immobilized on the surface chip; erbB2: Dr. Che Law, Xcyte Therapeutics; erbB3: Dr. Mark A. Lemmon
T1 sequence (P04626 23-652 limits assumed, one chain of several): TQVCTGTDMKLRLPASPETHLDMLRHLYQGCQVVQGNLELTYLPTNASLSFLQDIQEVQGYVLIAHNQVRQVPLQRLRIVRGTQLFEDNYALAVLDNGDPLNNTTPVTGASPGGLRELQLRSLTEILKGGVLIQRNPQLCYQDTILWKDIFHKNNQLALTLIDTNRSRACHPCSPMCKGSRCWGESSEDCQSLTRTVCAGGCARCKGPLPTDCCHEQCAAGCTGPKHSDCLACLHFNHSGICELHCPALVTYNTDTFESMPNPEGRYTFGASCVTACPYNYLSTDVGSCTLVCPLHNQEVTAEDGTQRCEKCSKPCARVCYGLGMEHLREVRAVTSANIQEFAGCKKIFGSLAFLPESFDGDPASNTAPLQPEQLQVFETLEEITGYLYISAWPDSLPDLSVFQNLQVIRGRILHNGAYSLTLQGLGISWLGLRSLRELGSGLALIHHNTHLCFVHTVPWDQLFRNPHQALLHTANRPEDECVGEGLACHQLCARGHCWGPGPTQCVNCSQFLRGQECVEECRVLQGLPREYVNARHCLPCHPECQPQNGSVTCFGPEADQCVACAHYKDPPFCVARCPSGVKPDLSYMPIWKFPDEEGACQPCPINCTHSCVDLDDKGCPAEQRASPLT
Protocol: (§1) The effect of cysteine-knot mimetics on receptor self-associations, was examined using a Biacore assay in which the ectodomains of erbB receptors were immobilized on the surface chip and the ectodomain of erbB3 was injected at 300 nM concentrations either alone or in the presence of 5 μM hereglunin HRGβ1.
(§2) The effect of the erbB peptides on heregulin-induced receptor self-associations was studied by preinjecting them at 10 μM followed by injection of erbB3-HRGβ1 (FIG. 4; 1B, 2B, 3B).
(§3) Binding experiments were performed with the surface plasmon resonance based biosensor instrument Biacore 3000 (Biacore AB, Uppsala, Sweden), at 25° C. […] (erbB2) and Dr. Mark A. Lemmon, Department of Biochemistry and Biophysics, University of Pennsylvania School of Medicine (erbB1 and erbB3). Immobilization of the erbB receptors in the sensor surface was performed following the standard amine coupling procedure according to manufacturer's instructions. Briefly, 35 μl of a solution containing 0.2 M N-ethyl-N′-(dimethylaminopropyl) carbodiimide (EDC) and 0.05 M N-hydroxysuccinimide (NHS), were injected at a flow rate of 5 μl/min to activate carboxyl groups on the sensor chip surface. Receptors (40 ng/ml in 10 mM NaOAc buffer, pH 5.0) were flowed over the chip surface at a flow rate of 20 μl/min until the desired level bound protein was reached. Unreacted protein was washed out and unreacted activated groups were blocked by the injection of 35 μl of 1 M ethanolamine at 5 μl/min. […] A reference surface was generated simultaneously under the same conditions but without receptor injection and used as a blank to correct for instrument and buffer artifacts. Peptides were injected at variable concentrations at 20 μl/min flow rate and binding to the receptors immobilized on the chip was monitored in real time. Each sensorgram consists of an association phase (first 240 s), reflecting binding of the injected peptide to the receptor, followed by a dissociation phase (300 s), during which the running buffer is passed over the chip and the bound peptide is being washed off the receptor surface.

[2] = target: T2, erbB3-erbB3 homomerization (Homo sapiens, UniProt P21860); experiment: SPR inhibition of HRGβ1-induced binding of ErbB3 to immobilized ErbB3; conditions: peptide 10 μm, ErbB3 300 nm, HRGβ1 5 μM
T2 construct: the ectodomains of erbB receptors were immobilized on the surface chip; erbB3: gift of Dr. Mark A. Lemmon
T2 sequence (P21860 20-643 limits assumed): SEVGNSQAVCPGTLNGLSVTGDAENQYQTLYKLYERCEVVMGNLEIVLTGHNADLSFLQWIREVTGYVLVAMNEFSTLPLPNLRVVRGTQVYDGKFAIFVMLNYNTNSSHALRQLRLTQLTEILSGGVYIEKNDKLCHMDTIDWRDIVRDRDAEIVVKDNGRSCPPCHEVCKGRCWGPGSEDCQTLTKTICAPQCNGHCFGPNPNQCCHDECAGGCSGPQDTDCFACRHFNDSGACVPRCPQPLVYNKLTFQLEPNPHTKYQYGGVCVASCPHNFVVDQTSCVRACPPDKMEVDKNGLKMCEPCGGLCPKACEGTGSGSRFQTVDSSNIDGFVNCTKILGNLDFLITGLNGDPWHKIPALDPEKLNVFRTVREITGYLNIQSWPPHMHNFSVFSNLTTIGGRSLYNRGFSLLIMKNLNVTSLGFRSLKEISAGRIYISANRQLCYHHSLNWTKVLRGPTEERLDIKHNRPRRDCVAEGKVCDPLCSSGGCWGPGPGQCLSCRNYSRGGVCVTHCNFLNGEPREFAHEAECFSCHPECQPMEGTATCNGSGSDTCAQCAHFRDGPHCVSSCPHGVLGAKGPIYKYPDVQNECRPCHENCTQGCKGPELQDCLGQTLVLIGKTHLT
Protocol: as §1, §2, §3

[3] = target: T3, erbB3-erbB1 heteromerization (Homo sapiens, UniProt P00533); experiment: SPR inhibition of HRGβ1-induced binding of ErbB3 to immobilized ErbB1; conditions: peptide 10 μm, ErbB3 300 nm, HRGβ1 5 μM
T3 construct: the ectodomains of erbB receptors were immobilized on the surface chip; erbB1 and erbB3: gift of Dr. Mark A. Lemmon
T3 sequence (P00533 25-645 limits assumed, one chain of several): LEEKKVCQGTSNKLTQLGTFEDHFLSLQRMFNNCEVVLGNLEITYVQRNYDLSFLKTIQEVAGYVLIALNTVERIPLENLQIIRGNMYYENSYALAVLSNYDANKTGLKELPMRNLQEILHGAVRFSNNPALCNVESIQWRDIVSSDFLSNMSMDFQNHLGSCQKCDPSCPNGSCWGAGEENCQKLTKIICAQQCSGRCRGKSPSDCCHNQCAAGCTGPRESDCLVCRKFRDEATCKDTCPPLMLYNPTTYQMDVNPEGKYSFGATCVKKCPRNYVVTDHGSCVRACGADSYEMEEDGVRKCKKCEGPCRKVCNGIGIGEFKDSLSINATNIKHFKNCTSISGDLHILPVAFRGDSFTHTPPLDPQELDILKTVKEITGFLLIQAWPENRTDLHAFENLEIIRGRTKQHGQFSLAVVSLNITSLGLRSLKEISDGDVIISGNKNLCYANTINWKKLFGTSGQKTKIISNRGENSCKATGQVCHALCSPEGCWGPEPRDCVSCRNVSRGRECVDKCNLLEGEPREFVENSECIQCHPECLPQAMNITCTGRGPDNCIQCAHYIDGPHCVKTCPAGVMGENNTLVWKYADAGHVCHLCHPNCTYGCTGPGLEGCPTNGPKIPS
Protocol: as §1, §2, §3

erbB2-SbdIV = target: T4, erbB2-SbdIV (Homo sapiens, UniProt P04626); experiment: Surface plasmon resonance binding to immobilized recombinant erbB2-SbdIV
T4 construct: The DNA fragment encoding the subdomain IV of erbB2 (erbB2-SbdIV) was generated by polymerase chain reaction; GST (N); made in house; host or cells: Escherichia coli BL-21 (DE3), vector pGEX-5X-3
T4 sequence (P04626 509-657): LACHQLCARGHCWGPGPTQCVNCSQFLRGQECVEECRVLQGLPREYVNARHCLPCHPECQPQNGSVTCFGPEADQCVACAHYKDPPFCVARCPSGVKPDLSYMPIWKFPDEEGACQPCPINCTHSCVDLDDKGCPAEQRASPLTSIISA
From the text: Since erbB peptides are derived from subdomain IV of different erbB receptors, this fact indicates direct involvement of subdomain IV in receptor-receptor interactions between the members of erbB receptor family.
The DNA fragment encoding the subdomain IV of erbB2 (erbB2-SbdIV) was generated by polymerase chain reaction. The upstream primer was 5′-[…]-3′ [SEQ ID NO: 44] and the downstream primer was 5′-[…]-3′. [SEQ ID NO: 45] These two primers were designed to include BamHI and Not I restriction sites, respectively, for inframe insertion into the BamHI/Not I linearized pGEX-5X-3 vector. Recombinant vector was used to infect Escherichia coli BL-21 (DE3). 100 ml of the 2XYT medium were inoculated with 10 ml of the overnight culture and grown at 37° C. until the OD600 of 0.4-0.5 was reached. IPTG was added to the medium at the final concentration of 0.1 mM and grown for 2 hrs. The cells were spun down by centrifugation at 4,000 g for 10 min and resuspended with 5 ml of cold PBS (with DTT, PMSF and aprotinin at the final concentration of 5 mM, 1 mM and 1 μg/ml respectively). After sonication on ice, Triton X-100 was added to the final concentration of 1% and the solution was rocked at 4° C. for 1 hr and centrifuged at 10,000 g for 10 min. 100 μl of glutathione sepharose bead was then added to the supernatant. It was rocked at 4° C. for 2-4 hrs, centrifuged and washed three times with PBS. 100 μl elution buffer was added followed by rotation for 10 min at room temperature, centrifugation at 300 g for 1 min and collection of the supernatant. Elutions were repeated three times and combined.
Binding experiments were performed with the surface plasmon resonance based biosensor instrument Biacore 3000 (Biacore AB, Uppsala, Sweden), at 25° C. Recombinant purified erbB receptors were provided by Dr. Che Law, Xcyte Therapeutics, Seattle, Wash. […] Peptides were injected at variable concentrations at 20 μl/min flow rate and binding to the receptors immobilized on the chip was monitored in real time. […]

ErbB1 = target: T5, ErbB1 (Homo sapiens, UniProt P00533); experiment: Surface plasmon resonance (Biacore) binding to immobilized ErbB1 extracellular domain
T5 construct: gift of Dr. Mark A. Lemmon, University of Pennsylvania School of Medicine
T5 sequence (P00533 25-645 limits assumed): as the sequence (P00533 25-645 limits assumed, one chain of several) above
Protocol: (§4) The designed erbB peptides were tested for binding to erbB receptors using surface plasmon resonance (Biacore) technology (described supra) using soluble erbB-1 and erbB-3. The response was plotted in real time in the form of sensorgram curves.
as §3

ErbB3 = target: T6, ErbB3 (Homo sapiens, UniProt P21860); experiment: Surface plasmon resonance (Biacore) binding to immobilized ErbB3 extracellular domain
T6 construct: gift of Dr. Mark A. Lemmon, University of Pennsylvania School of Medicine
T6 sequence (P21860 20-643 limits assumed): as the sequence (P21860 20-643 limits assumed) above
Protocol: as §4, §3

ErbB2 = target: T7, ErbB2 (Homo sapiens, UniProt P04626); experiment: Surface plasmon resonance (Biacore) binding to immobilized ErbB2 extracellular domain
T7 construct: provided by Dr. Che Law, Xcyte Therapeutics, Seattle
T7 sequence (P04626 23-652 limits assumed): as the sequence (P04626 23-652 limits assumed, one chain of several) above
Protocol: as §4, with “curves. Dissociation constants (Kd) were determined as described (Park, et al. 2000, Nat. Biotechnol. 18:194-198).” for “curves.”
A sensorgram for binding of B2-S22-APE peptide to erbB receptors immobilized on the sensor chip was performed.
as §3

[4] = erbB2-SbdIV immobilized on the surface chip, FIG. 3B
[5] = FIG. 3A, erbB receptors immobilized on the sensor chip, global fitting to 1:1 Langmurian interaction model
[6] = immobilized extracellular domain, surface plasmon resonance, read-out: KD (μM) ErbB1
[7] = immobilized extracellular domain, surface plasmon resonance, read-out: KD (μM) ErbB3
[8] = immobilized extracellular domain, surface plasmon resonance, read-out: KD (μM) ErbB2

SMILES: CC[C@H](C)[C@@H]1NC(=O)[C@@H]2CCCN2C(=O)[C@@H](NC(=O)[C@@H](N)Cc2ccc(O)cc2)CSSC[C@@H](C(=O)N[C@@H](Cc2ccc(O)cc2)C(N)=O)NC(=O)[C@H](CCC(=O)O)NC(=O)[C@H](CCC(=O)O)NC(=O)[C@H](CC(=O)O)NC(=O)[C@@H]2CCCN2C(=O)[C@H](Cc2ccccc2)NC(=O)[C@H](CCCCN)NC(=O)[C@H](Cc2c[nH]c3ccccc23)NC1=O [B2-S22-APE] (H-YCPIWKFPDEECY-NH2; disulfide 2-12)
Percent Inhibition ErbB2 [1]: 51.1%
Percent Inhibition ErbB3 [2]: 42.7%
Percent Inhibition ErbB1 [3]: 80.3%
Kd (erbB2-SbdIV): 1890 nM
koff (erbB2-SbdIV; [4]): 0.00307 s⁻¹
kon (erbB2-SbdIV; [4]): 1620 M⁻¹ s⁻¹
Kd (ErbB1): 0.21 µM
Kd (ErbB3): 1.4 µM
koff (ErbB2; [5]): 0.000685 s⁻¹
kon (ErbB2; [5]): 3240 M⁻¹ s⁻¹
Kd (ErbB2; KD (μM) ErbB2, immobilized extracellular domain, surface plasmon resonance): 1.53 µM
Kd (ErbB2; dissociation constant (Kd), FIG. 3A, koff/kon ratio): 0.21 µM

SMILES: CC[C@H](C)[C@@H]1NC(=O)[C@@H]2CCCN2C(=O)[C@@H](NC(=O)[C@@H](N)Cc2ccc(O)cc2)CSSC[C@@H](C(=O)N[C@@H](Cc2ccc(O)cc2)C(N)=O)NC(=O)[C@H](CCC(N)=O)NC(=O)[C@H](C(C)C)NC(=O)[C@H](CC(=O)O)NC(=O)[C@@H]2CCCN2C(=O)[C@H](Cc2ccc(O)cc2)NC(=O)[C@H](CCCCN)NC(=O)[C@H](Cc2ccc(O)cc2)NC1=O [B3-S22-APQ] (H-YCPIYKYPDVQCY-NH2; disulfide 2-12)
Percent Inhibition ErbB2 [1]: 58.1%
Percent Inhibition ErbB3 [2]: 32.4%
Percent Inhibition ErbB1 [3]: 69.0%
Kd (ErbB1; [6]): 0.472 µM
Kd (ErbB3; [7]): 1.07 µM
Kd (ErbB2; [8]): 0.549 µM

SMILES: CC[C@H](C)[C@@H]1NC(=O)[C@H](Cc2ccc(O)cc2)NC(=O)[C@@H](NC(=O)[C@@H](N)Cc2ccccc2)CSSC[C@@H](C(=O)N[C@@H](Cc2ccc(O)cc2)C(N)=O)NC(=O)[C@H](CCC(N)=O)NC(=O)[C@H](CC(=O)O)NC(=O)[C@H](CCC(=O)O)NC(=O)[C@H](C(C)C)NC(=O)[C@H](CCC(=O)O)NC(=O)CNC1=O [CD4-G, reference compound] (H-FCYIGEVEDQCY-NH2; disulfide 2-11)
Percent Inhibition ErbB2 [1]: −1.2%
Percent Inhibition ErbB3 [2]: 3.1%
Percent Inhibition ErbB1 [3]: 2.4%
Kd (ErbB1; [6]): > 1000 µM
Kd (ErbB3; [7]): > 1000 µM
Kd (ErbB2; [8]): > 1000 µM

Now from value to compound:

Percent Inhibition ErbB2 [1]: 71.4%
Percent Inhibition ErbB3 [2]: 75.1%
Percent Inhibition ErbB1 [3]: 65.2%
Kd (ErbB1; [6]): 0.449 µM
Kd (ErbB3; [7]): 0.288 µM
Kd (ErbB2; [8]): 0.371 µM
SMILES: CC(C)C[C@@H]1NC(=O)[C@@H](NC(=O)[C@@H](N)Cc2ccc(O)cc2)CSSC[C@@H](C(=O)N[C@@H](Cc2ccc(O)cc2)C(N)=O)NC(=O)CNC(=O)[C@H](C)NC(=O)[C@H](CC(=O)O)NC(=O)[C@H](C)NC(=O)[C@H](Cc2ccc(O)cc2)NC(=O)[C@H](CCCCN)NC(=O)[C@H](Cc2c[nH]c3ccccc23)NC(=O)[C@H](C(C)C)NC1=O [B1-S22-ALG] (H-YCLVWKYADAGCY-NH2; disulfide 2-12)

Percent Inhibition ErbB2 [1]: 54.2%
Percent Inhibition ErbB3 [2]: 72.8%
Percent Inhibition ErbB1 [3]: 60.3%
Kd (ErbB1; [6]): 0.583 µM
Kd (ErbB3; [7]): 0.394 µM
Kd (ErbB2; [8]): 0.639 µM
SMILES: CC[C@H](C)[C@@H]1NC(=O)[C@H](Cc2ccccc2)NC(=O)[C@@H](NC(=O)[C@@H](N)Cc2ccc(O)cc2)CSSC[C@@H](C(=O)N[C@@H](Cc2ccc(O)cc2)C(N)=O)NC(=O)[C@H](CC(=O)O)NC(=O)[C@@H]2CCCN2C(=O)[C@H](CC(=O)O)NC(=O)[C@H](C)NC(=O)[C@H](Cc2ccc(O)cc2)NC(=O)[C@H](CCCCN)NC(=O)[C@H](Cc2ccccc2)NC1=O [B4-S22-AFD] (H-YCFIFKYADPDCY-NH2; disulfide 2-12)
